Drawing on ChEMBL document CHEMBL1150536, “Synthesis and pharmacological characterization of l-trans-4-tetrazolylproline (ly300020): A novel systemically-active ampa receptor agonist” (Bioorg Med Chem Lett, 1993), this text covers IC50 and Effect for three compounds.

Calls of active or inactive are those of the source. No cut-off for these calls is given here.

In experiment [1] the target is Glutamate receptor ionotropic, AMPA (Rattus norvegicus, UniProt P19490+P19491+P19492+P19493). The experiment in a line: Tested for the ability to displace [3H]AMPA (5 nM) from Ionotropic glutamate receptor AMPA in rat forebrain membranes. In kind it is cell membranes, Membrane.
Experiment [2] addresses Glutamate receptor ionotropic, kainate. In words: Tested for the ability to displace [3H]kainate (5 nM) binding from Ionotropic glutamate receptor kainate in rat forebrain membranes. In kind it is cell membranes, Membrane.
For experiment [3], the target named is Glutamate receptor ionotropic, NMDA 2C (Rattus norvegicus, UniProt Q00961). The experiment in a line: Tested for the ability to displace [3H]CGS-19,755 (10 nM) binding in rat forebrain membranes for NMDA receptor. In kind it is cell membranes, Membrane.
Glutamate receptor ionotropic, NMDA 2C, sequence (Q00961 whole entry): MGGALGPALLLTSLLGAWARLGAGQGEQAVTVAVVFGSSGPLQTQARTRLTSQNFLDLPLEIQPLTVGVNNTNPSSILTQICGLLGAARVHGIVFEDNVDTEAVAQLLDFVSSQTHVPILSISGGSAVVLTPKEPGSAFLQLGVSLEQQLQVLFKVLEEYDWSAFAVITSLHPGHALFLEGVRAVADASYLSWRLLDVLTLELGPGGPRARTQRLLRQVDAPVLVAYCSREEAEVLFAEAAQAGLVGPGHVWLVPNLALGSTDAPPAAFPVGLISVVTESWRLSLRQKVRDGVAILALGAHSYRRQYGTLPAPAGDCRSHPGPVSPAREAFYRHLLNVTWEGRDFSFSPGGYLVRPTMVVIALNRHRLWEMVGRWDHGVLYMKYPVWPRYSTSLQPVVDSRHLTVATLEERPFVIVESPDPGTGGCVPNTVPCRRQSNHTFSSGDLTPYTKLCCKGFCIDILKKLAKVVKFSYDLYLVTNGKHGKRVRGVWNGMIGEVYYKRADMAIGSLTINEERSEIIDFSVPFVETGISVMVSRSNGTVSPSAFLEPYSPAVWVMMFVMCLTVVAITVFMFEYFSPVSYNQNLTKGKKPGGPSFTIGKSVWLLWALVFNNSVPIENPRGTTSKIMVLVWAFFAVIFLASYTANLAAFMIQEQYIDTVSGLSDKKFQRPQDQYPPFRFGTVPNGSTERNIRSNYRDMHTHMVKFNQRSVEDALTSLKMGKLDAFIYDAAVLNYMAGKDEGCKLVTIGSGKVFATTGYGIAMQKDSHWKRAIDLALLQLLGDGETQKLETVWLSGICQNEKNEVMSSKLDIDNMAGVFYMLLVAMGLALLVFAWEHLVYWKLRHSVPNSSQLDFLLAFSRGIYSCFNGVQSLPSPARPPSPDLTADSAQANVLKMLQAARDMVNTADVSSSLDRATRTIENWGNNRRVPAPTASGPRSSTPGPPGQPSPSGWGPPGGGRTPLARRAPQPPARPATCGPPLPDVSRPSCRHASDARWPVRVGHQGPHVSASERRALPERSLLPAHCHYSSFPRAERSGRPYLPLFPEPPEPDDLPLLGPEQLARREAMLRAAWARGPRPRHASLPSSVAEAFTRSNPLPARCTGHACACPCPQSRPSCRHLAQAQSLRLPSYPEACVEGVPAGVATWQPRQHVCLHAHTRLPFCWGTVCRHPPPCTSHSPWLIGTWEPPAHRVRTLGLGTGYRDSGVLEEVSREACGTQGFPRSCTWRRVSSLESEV
The species named for a further experiment is Rattus norvegicus. The experiment in a line: Tested for the ability to antagonize depolarizations induced by NMDA (40 uM), AMPA (40 uM); insignificant. In kind it is functional.

What is called IC50 is the concentration that inhibits the measured activity by half. Higher therefore signals a need for much substance. With `O=C(O)[C@H]1C[C@H](c2nnn[nH]2)CN1`, the IC50 in experiment [1], in experiment [2] and in experiment [3] was above 100 µM in each case.
Consider `O=C(O)[C@H]1CN[C@H](C(=O)O)C1`, for which the IC50 in experiment [1], in experiment [2] and in experiment [3] was above 100 µM in each case.
On to `O=C(O)[C@@H]1C[C@@H](c2nnn[nH]2)CN1`, for which, in the experiment filed under Rattus norvegicus, the Effect entry is “inactive”. Also, the IC50 in experiment [1] is 3.38 µM; in experiment [2] it was 61 µM; in experiment [3], above 100 µM.
